Laboratory results published in ChEMBL document CHEMBL4422623, “Synthesis of spiro-2,6-dioxopiperazine and spiro-2,6-dioxopyrazine scaffolds using amino acids in a three-component reaction to generate potential Sigma-1 (σ1) receptor selective ligands” (Eur J Med Chem, 2019).

Legend:
[1] = biological target: 5-hydroxytryptamine receptor 2B (Homo sapiens, UniProt P41595); test: Displacement of [3H]LSD from human 5-HT2B receptor expressed in HEK cells by radioligand binding assay; assay type: cell-based
5-hydroxytryptamine receptor 2B, sequence (P41595 whole entry): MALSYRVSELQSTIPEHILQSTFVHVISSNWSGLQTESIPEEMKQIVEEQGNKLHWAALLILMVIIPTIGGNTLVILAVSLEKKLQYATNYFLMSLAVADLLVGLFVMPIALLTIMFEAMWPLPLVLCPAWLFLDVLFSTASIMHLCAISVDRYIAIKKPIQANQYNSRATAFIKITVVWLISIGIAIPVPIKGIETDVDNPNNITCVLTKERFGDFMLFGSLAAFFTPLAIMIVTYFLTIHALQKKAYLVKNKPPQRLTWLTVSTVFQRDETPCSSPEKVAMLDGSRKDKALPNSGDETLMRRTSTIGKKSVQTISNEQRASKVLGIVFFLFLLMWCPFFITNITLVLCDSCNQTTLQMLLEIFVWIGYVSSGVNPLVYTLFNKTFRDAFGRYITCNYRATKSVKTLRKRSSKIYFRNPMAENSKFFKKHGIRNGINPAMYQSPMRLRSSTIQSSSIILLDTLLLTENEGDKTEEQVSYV

Mu-type opioid receptor = Mu-type opioid receptor (Homo sapiens, UniProt P35372); test: Displacement of [3H]DAMGO from human mu opioid receptor expressed in HEK cells by radioligand binding assay; assay type: cell-based
Mu-type opioid receptor, sequence (P35372 whole entry): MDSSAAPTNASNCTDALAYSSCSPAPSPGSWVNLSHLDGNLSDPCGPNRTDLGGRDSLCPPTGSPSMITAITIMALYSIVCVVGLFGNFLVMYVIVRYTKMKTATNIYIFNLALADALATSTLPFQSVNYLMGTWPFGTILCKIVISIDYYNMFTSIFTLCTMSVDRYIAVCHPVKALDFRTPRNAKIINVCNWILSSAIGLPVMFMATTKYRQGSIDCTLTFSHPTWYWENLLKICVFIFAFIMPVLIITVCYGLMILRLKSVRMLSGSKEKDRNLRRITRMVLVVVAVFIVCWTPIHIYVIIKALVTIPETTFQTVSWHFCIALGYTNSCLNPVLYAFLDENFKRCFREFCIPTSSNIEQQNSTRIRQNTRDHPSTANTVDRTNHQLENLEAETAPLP

[2] = biological target: Sodium-dependent dopamine transporter (Homo sapiens, UniProt Q01959); test: Displacement of [3H]WIN35428 from human DAT receptor expressed in HEK cells by radioligand binding assay; assay type: cell-based
Sodium-dependent dopamine transporter, sequence (Q01959 whole entry): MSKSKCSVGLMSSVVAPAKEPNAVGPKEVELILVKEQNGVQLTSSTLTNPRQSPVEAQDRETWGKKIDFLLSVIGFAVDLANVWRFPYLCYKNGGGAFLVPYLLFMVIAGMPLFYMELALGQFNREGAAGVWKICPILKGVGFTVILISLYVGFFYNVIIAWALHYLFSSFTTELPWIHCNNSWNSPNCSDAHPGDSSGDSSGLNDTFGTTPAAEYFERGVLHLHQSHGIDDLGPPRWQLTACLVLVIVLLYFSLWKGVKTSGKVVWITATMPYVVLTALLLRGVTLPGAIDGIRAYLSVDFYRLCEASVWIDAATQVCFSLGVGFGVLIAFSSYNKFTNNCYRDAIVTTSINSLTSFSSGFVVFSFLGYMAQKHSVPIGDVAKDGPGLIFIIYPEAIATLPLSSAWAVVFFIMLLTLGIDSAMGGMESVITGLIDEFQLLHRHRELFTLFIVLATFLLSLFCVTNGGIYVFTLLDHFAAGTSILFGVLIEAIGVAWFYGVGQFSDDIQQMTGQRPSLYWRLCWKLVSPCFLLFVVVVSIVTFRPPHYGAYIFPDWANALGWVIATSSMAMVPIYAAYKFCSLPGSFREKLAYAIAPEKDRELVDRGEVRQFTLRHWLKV

[3] = biological target: 5-hydroxytryptamine receptor 7 (Homo sapiens, UniProt P34969); test: Displacement of [3H]LSD from human 5-HT7 receptor expressed in HEK cells by radioligand binding assay; assay type: cell-based
5-hydroxytryptamine receptor 7, sequence (P34969 whole entry): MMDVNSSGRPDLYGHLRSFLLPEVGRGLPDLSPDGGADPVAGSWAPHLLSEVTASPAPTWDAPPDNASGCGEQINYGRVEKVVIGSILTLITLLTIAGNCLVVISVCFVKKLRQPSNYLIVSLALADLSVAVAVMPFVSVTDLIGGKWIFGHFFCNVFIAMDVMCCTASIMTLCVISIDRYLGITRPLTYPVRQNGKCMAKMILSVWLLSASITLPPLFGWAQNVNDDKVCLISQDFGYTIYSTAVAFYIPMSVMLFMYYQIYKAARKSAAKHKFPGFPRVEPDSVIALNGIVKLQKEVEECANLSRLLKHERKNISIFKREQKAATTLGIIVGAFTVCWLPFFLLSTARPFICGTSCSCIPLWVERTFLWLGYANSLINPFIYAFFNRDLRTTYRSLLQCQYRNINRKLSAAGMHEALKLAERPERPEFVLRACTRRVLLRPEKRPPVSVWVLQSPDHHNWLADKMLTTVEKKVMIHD

[4] = biological target: Sigma non-opioid intracellular receptor 1 (Cavia porcellus, UniProt Q60492); test: Displacement of [3H]Pentazocine from guinea pig sigma-1 receptor by radioligand binding assay
Sigma non-opioid intracellular receptor 1, sequence (Q60492 whole entry): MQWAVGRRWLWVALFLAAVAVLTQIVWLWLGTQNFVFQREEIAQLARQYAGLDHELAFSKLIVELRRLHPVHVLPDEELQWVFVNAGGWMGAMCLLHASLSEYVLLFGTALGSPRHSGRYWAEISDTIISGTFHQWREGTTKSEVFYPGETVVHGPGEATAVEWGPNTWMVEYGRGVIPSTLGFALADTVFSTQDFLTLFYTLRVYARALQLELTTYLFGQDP

D(4) dopamine receptor = biological target: T1, D(4) dopamine receptor (Homo sapiens, UniProt P21917); test: Displacement of [3H]N-methylspiperone from human D4 receptor by radioligand binding assay
T1 sequence (P21917 whole entry): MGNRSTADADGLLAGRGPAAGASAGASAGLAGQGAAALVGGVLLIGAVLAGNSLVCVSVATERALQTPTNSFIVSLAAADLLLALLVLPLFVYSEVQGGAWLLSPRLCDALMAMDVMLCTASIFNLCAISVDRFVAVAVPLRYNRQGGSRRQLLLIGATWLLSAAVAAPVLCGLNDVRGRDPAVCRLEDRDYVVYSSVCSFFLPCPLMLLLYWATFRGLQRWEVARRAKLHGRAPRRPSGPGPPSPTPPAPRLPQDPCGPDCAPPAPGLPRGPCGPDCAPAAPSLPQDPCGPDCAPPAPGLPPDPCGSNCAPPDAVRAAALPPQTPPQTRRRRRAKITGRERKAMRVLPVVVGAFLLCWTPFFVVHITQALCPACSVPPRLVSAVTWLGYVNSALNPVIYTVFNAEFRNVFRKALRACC

Histamine H2 receptor = Histamine H2 receptor (Homo sapiens, UniProt P25021); test: Binding affinity to human histamine 2 receptor expressed in HEK cells by radioligand binding assay; assay type: cell-based
Histamine H2 receptor, sequence (P25021 whole entry): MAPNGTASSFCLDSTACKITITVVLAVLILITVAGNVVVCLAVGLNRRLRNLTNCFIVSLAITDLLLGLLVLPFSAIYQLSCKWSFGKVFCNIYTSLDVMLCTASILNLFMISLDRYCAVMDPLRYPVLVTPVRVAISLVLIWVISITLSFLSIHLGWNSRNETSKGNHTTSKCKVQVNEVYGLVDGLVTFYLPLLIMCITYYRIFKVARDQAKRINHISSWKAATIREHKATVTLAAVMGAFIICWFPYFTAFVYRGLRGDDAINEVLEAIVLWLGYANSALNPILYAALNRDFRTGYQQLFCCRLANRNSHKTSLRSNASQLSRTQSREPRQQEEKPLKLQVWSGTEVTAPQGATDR

[5] = biological target: T2, Alpha-2A adrenergic receptor (Homo sapiens, UniProt P08913); test: Displacement of […] from human adrenergic alpha 2A receptor expressed in MDCK cells by radioligand binding assay; assay type: cell-based
T2 sequence (P08913 whole entry): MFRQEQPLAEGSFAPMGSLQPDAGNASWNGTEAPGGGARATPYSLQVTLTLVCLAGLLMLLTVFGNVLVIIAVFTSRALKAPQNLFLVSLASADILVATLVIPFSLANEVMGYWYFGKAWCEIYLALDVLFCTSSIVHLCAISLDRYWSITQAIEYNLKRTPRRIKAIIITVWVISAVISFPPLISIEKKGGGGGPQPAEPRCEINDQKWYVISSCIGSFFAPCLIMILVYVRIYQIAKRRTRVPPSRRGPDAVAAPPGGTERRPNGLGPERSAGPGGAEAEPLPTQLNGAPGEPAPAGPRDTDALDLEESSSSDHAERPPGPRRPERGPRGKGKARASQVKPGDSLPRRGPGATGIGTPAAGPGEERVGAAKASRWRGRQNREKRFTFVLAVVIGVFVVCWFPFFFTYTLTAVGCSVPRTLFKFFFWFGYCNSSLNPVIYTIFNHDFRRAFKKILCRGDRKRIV

[6] = biological target: Kappa-type opioid receptor (Homo sapiens, UniProt P41145); test: Displacement of [3H]U69593 from human kappa opioid receptor expressed in HEK cells by radioligand binding assay; assay type: cell-based
Kappa-type opioid receptor, sequence (P41145 whole entry): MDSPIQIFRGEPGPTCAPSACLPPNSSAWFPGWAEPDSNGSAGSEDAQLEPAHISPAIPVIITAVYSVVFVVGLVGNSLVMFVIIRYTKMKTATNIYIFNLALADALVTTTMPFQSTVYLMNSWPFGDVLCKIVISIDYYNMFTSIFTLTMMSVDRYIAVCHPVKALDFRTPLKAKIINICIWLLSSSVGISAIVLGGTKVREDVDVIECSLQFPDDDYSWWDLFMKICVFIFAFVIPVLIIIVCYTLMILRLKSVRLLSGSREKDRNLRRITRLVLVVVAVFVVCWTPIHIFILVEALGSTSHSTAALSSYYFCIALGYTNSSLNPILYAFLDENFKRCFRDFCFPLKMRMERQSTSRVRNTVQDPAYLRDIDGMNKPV

[7] = biological target: T3, Sigma intracellular receptor 2 (Rattus norvegicus, UniProt Q5U3Y7); test: Displacement of [3H]DTG from sigma-2 receptor in rat PC12 cells by radioligand binding assay; assay type: cell-based
T3 sequence (Q5U3Y7 whole entry): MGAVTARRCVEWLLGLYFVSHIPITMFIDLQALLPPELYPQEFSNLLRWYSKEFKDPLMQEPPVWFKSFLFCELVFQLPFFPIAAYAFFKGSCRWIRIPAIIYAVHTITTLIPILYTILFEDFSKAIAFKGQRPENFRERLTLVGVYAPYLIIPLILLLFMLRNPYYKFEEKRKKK

SMILES | Ki [1] [µM] | Ki (Mu-type opioid receptor) [µM] | Ki [2] [µM] | Ki [3] [µM] | Ki [4] [µM] | Ki (D(4) dopamine receptor) [µM] | Ki (Histamine H2 receptor) [µM] | Ki [5] [µM] | Ki [6] [µM] | Ki [7] [µM]
Cc1cccc(C)c1N1C(=O)CNC2(CCN(C)CC2)C1=O | 0.742 | 10 | – | – | – | – | – | – | – | –
CC1=NC2(CCN(C)CC2)C(=O)N(c2c(C)cccc2C)C1=O | 0.231 | – | 2.56 | 2.77 | 0.0086 | 1.28 | 0.823 | 3.36 | 1.71 | 0.696
Cc1cccc(C)c1N1C(=O)[C@H](CO)NC2(CCN(C)CC2)C1=O | 2.05 | 1.63 | – | – | – | – | – | – | – | –
Cc1cccc(C)c1N1C(=O)[C@H](CC2CNc3ccccc32)NC2(CCN(C)CC2)C1=O (stereo partly specified) | 0.84 | 0.993 | – | – | – | – | 0.546 | – | – | –
